Consider 2 compounds from patent US11591337B2, “Substituted [1,2,4]triazolo[4,3-a]pyrazines as modulators of mGlu5 receptors” (Recordati Industria Chimica e Farmaceutica S.p.A., priority 2018, dated 2023).

Experiment [1] concerns the target T1, mGlu5 receptor (Homo sapiens, UniProt P41594).
T1 construct: Human mGluR5 open reading frame (ORF), comprehensive of the stop codon, were cloned into the pcDNA4/TO/myc-His™ A vector; expressed in transfected cells
The experiment in a line: Radioligand binding assay ([3H]MPEP) at cloned mGluR5. The following applies: CHO T-REx h-mGluR5 cells, 4 nM [3H]MPEP, 60 min at 25° C.; read-out: affinity (Ki) for mGlu5 receptor. An excerpt:
Cell lines stably transfected were generated using inducible expression vectors encoding human mGlu5 receptor using the Tetracycline-Regulated Expression system (T-REx™ system, Invitrogen, Life Technologies). Human mGluR5 open reading frame (ORF), comprehensive of the stop codon, were cloned into the pcDNA4/TO/myc-His™ A vector, carrying the TetO2. The insertion site was HindIII-PstI for mGluR5 receptors. The obtained constructs were then transfected into the T-REx CHO™ cell line using the FuGENE protocol (Roche); the CHO T-REx™ cell line stably expresses the Tet repressor (from the pcDNA6/TR plasmid) under the selection of blasticidin, 10 μg/ml. […] The expression of h-mGluR5 receptors was de-repressed with 1 μg/ml tetracycline for 18 h before binding experimentation, while the expression of h-mGluR5 receptors was derepressed respectively with 3 ng/ml and 10 ng/ml tetracycline for 18 h before calcium fluorescence experimentation.
Affinity at transmembrane glutamate metabotropic mGluR5 receptor subtypes was evaluated according to the methods of Anderson (Anderson et al., J Pharmacol. Exp. Ther., (2002), Vol. 303(3), pp. 1044-51), with some modifications. […] Non-specific binding was determined in the presence of 10 μM MPEP. […] The filters were then washed with cold buffer and the radioactivity retained on the filters was counted by liquid scintillation spectrometry (Betaplate 1204 BS-Wallac). […]

For experiment [2], the target named is T1, mGlu5 receptor. The experiment in a line: Functional activity at mGlu5 receptor as calcium fluorescence measurements. Format: cell-based. An excerpt:
Cell lines stably transfected were generated using inducible expression vectors encoding human mGlu5 receptor using the Tetracycline-Regulated Expression system (T-REx™ system, Invitrogen, Life Technologies). Human mGluR5 open reading frame (ORF), comprehensive of the stop codon, were cloned into the pcDNA4/TO/myc-His™ A vector, carrying the TetO2. The insertion site was HindIII-PstI for mGluR5 receptors. The obtained constructs were then transfected into the T-REx CHO™ cell line using the FuGENE protocol (Roche); the CHO T-REx™ cell line stably expresses the Tet repressor (from the pcDNA6/TR plasmid) under the selection of blasticidin, 10 μg/ml. Stable clones were obtained selecting with zeocin 1 mg/ml and maintaining in ULTRA CHO medium (LONZA) supplemented with dialyzed FBS, zeocin, blasticidin, at 37° C., in an atmosphere of 5% CO2. The expression of h-mGluR5 receptors was de-repressed with 1 μg/ml tetracycline for 18 h before binding experimentation, while the expression of h-mGluR5 receptors was derepressed respectively with 3 ng/ml and 10 ng/ml tetracycline for 18 h before calcium fluorescence experimentation.
Cells were seeded into black-walled, clear-bottom, 96-well plates at a density of 80000 cell/well, in RPMI (without Phenol Red, without L-glutamine; Gibco LifeTechnologies, CA) supplemented with 10% dialyzed FBS. Following 18-h incubation with tetracycline, the cells were loaded with 2 mM Ca^2+- sensitive fluorescent dye Fluo-4/AM (Molecular Probes) in Hanks' balanced saline solution (HBSS, Gibco LifeTechnologies, CA) with […] Hepes (Sigma) and 2.5 mM probenecid (Sigma), for 1 h at 37° C. The cells were washed three times with HBSS to remove extracellular dye. Fluorescence signals were measured by using the fluorescence microplate reader Flexstation III (Molecular Devices) at sampling intervals of 1.5 s for 60 s.
The antagonist potency was determined using the EC80 of the quisqualate used as agonist and the potentiation of mGlu5 activation was determined using the EC20 of the agonist (quisqualate or glutamate). […]

T1 sequence (P41594 21-1212): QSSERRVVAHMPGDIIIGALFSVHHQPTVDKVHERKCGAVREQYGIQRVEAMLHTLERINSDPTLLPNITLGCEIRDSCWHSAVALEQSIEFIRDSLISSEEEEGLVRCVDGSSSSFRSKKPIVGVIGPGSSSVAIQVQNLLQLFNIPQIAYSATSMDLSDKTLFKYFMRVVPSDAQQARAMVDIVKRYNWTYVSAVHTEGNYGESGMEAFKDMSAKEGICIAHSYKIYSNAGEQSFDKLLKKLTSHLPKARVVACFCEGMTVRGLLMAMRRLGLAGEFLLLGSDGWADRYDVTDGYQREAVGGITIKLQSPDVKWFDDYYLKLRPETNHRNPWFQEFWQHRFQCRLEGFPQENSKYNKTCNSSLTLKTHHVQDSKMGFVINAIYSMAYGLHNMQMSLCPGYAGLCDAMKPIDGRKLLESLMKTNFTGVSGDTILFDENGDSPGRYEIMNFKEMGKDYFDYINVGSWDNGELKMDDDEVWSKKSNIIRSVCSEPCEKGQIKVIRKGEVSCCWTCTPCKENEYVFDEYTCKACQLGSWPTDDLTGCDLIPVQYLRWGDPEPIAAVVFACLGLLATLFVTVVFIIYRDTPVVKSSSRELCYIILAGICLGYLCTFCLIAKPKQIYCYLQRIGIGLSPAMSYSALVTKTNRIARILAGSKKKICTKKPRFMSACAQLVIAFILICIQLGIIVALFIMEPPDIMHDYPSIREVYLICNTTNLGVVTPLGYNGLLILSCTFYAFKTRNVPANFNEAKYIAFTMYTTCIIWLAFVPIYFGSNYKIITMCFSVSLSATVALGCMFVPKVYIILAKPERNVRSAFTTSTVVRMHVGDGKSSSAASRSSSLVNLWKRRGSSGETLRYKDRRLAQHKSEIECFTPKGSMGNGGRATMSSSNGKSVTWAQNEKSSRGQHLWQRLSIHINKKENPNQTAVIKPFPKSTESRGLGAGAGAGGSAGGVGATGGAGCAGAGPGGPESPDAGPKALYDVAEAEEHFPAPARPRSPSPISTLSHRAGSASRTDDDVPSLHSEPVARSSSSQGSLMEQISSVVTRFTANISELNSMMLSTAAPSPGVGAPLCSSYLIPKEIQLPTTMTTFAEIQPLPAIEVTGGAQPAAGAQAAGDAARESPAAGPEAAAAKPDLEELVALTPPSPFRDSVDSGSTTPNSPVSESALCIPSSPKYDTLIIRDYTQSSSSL

Broadly, the Ki is the equilibrium dissociation constant of an inhibitor or competing ligand from its target. In general, IC50 refers to the concentration needed to halve the response being measured. As to `CCN(C)C(=O)N1CCn2c(C#Cc3cccc(C)c3)nnc2C1` [Example 40, N-Ethyl-N-methyl-3-[2-(m-tolyl)ethynyl]-6,8-dihydro-5H-[1,2,4]triazolo[4,3-a]pyrazine-7-carboxamide], the Ki in experiment [1] turned out to be 32 nM. Also, in experiment [2], the “type of allosteric modulation” value was “negative allosteric modulator”. For the same compound, the IC50 in experiment [2] (antagonist potency at EC80 of quisqualate, read-out: negative allosteric modulation activity IC50) was 60.9 nM.
The EC50 is the concentration needed to bring the measured effect to its halfway point. On to `O=C(c1cccc(Cl)c1)N1CCn2c(C#Cc3cccc(Cl)c3)nnc2C1` [Example 8, (3-Chlorophenyl)-[3-[2-(3-chlorophenyl)ethynyl]-6,8-dihydro-5H-[1,2,4]triazolo[4,3-a]pyrazin-7-yl]methanone], for which, in experiment [1], the Ki came out at 33.8 nM. Further, the EC50 in experiment [2] (potentiation of mGlu5 activation at EC20 of the agonist (quisqualate or glutamate), read-out: positive allosteric activity EC50) was 294 nM.
